Experiments:
[1] = tested on: HT-29 cells; assay: Cell Titer-Glo anti-proliferation, HT-29 cells; format: cell-based, human; conditions: 3 days, read-out: Anti-proliferative activity HT-29 (IC50 class)
Method: (§1) A. Evaluation of the Anti-Proliferative Effect of Compounds on BxPC3, HT-29 and OVCAR-3 Cells by the Cell Titer-Glo Method
(§2) Compound solutions of different concentration gradients were prepared. […] The cell growth group without compound was used as a positive control (maximum signal control) and the medium was used as a negative control (minimum signal control), while ensuring that the final level of DMSO in each reaction well was 0.2%. After removing the medium from the 384-well plate, 25 μl of the configured compound at different concentrations was transferred into the well plate and the compound and cells were incubated in the cell incubator at 37° C. with 5% CO2 for 3 days.
(§3) The 384-well plates were removed from the cell incubator and allowed to equilibrate for 1 h to room temperature. 25 μl of Cell Titer-Glo assay was added to each well, lysed on a shaker for 2 min and then read out (Luminescence) using a BMG PHERAStar after 10 min incubation. Calculate the inhibition rate from the luminescence signal.
(§4) to calculate the rate of inhibition of the cells by different concentrations of the compounds. The IC50 of the compound on cell activity inhibition was calculated by fitting a log(inhibitor) vs. response-Variable slope model to GraphPad Prism 6. The fitted equation was: Y=Bottom+(Top-Bottom)/(1+10^((Log IC50−X)*HillSlope)), where Y represents the rate of inhibition and X represents the concentration of the known compound after Log.

[2] = tested on: BxPC3 cells; assay: Cell Titer-Glo anti-proliferation, BxPC3 cells; format: cell-based, human; conditions: 3 days, read-out: Anti-proliferative activity BxPC3 (IC50 class)
Method: as §1, §2, §3, §4

[3] = tested on: OVCAR-3 cells; assay: Cell Titer-Glo anti-proliferation, OVCAR-3 cells; format: cell-based; conditions: 3 days, read-out: Anti-proliferative activity OVCAR-3 (IC50 class)
Method: as §1, §2, §3, §4

Row | SMILES | IC50 [1] [nM] | IC50 [2] [nM] | IC50 [3] [nM]
1 | C=CCn1c(=O)c2cnc(Nc3ccc(N4CC5CC(C4)N5C(C)=O)cc3)nc2n1-c1ccc2c(n1)[C@@](C)(O)C1(CC2)CC1 (single isomer, unassigned) [Compound 50a] | 100 to 1000 | 100 to 1000 | 100 to 1000
2 | C=CCn1c(=O)c2cnc(Nc3ccc(N4CC5CC(C4)N5C)cc3)nc2n1-c1ccc2c(n1)[C@](O)(CC)C1(CC2)CC1 (single isomer, unassigned) [Compound 64a] | 100 to 1000 | 100 to 1000 | 100 to 1000
3 | C=CCn1c(=O)c2cnc(Nc3ccc(N4CC5CC(C4)N5C)cc3)nc2n1-c1ccc2c(n1)[C@@](O)(CC)C1(CC2)CC1 (single isomer, unassigned) [Compound 64b] | 100 to 1000 | 100 to 1000 | 100 to 1000
4 | C=CCn1c(=O)c2cnc(Nc3ccc(N4CCC5(CCN(C)CC5)CC4)cc3)nc2n1-c1ccc2c(n1)C(O)(CC)C1(CC1)C2 (racemic) [Compound 27] | 100 to 1000 | 100 to 1000 | 100 to 1000
5 | C=CCn1c(=O)c2cnc(Nc3ccc(N4CC5CC(C4)N5C)cc3)nc2n1-c1ccc2c(n1)[C@H](O)C1(CC2)CC1 (single isomer, unassigned) [Compound 34b] | 100 to 1000 | 100 to 1000 | 1000 to 2000
6 | C=CCn1c(=O)c2cnc(Nc3ccc(N4CC5CC(C4)N5C)cc3)nc2n1-c1ccc2c(n1)C(O)C1(CC2)CC1 (racemic) [Compound 34] | 100 to 1000 | 1000 to 2000 | 1000 to 2000
7 | C=CCn1c(=O)c2cnc(Nc3ccc(N4CC5CC(C4)N5C)c(C)c3)nc2n1-c1ccc2c(n1)C(O)C1(CC2)CC1 (centres unmarked) [Compound 67] | 1000 to 2000 | 1000 to 2000 | 1000 to 2000
8 | C=CCn1c(=O)c2cnc(Nc3ccc(N4CCOCC4)cc3)nc2n1-c1ccc2c(n1)C(O)(CC)C1(CC1)C2 (racemic) [Compound 24] | 1000 to 2000 | 1000 to 2000 | 1000 to 2000
9 | C=CCn1c(=O)c2cnc(Nc3ccc(N4CCN(C)CC4)cc3)nc2n1-c1ccc2c(n1)C(O)(CC)C1(CC1)C2 (racemic) [Compound 18] | 100 to 1000 | 2000 to 5000 | 2000 to 5000
10 | C=CCn1c(=O)c2cnc(Nc3ccc(N4CCC(N(C)C)CC4)c(C)c3)nc2n1-c1ccc2c(n1)C(O)C1(CC2)CC1 (single isomer, unassigned) [Compound 41a] | 100 to 1000 | 1000 to 2000 | 100 to 1000
11 | C=CCn1c(=O)c2cnc(Nc3ccc(N4CC5CC(C4)N5C(C)C)cc3)nc2n1-c1ccc2c(n1)C(O)(CC)C1(CC2)CC1 (single isomer, unassigned) [Compound 36a] | 100 to 1000 | 100 to 1000 | 100 to 1000
12 | C=CCn1c(=O)c2cnc(Nc3ccc(N4CCC5(CCN(C)CC5)CC4)c(F)c3)nc2n1-c1ccc2c(n1)C(O)C1(CC2)CC1 (single isomer, unassigned) [Compound 62a] | 100 to 1000 | 1000 to 2000 | 1000 to 2000
13 | C=CCn1c(=O)c2cnc(Nc3ccc(N4C[C@@H]5C[C@H]4CN5C)cc3)nc2n1-c1ccc2c(n1)[C@@](C)(O)C1(CC2)CC1 (single isomer, unassigned) [Compound 45a] | 100 to 1000 | 1000 to 2000 | 100 to 1000
14 | C=CCn1c(=O)c2cnc(Nc3ccc(N4CCC5(CCN(C)CC5)CC4)cc3)nc2n1-c1ccc2c(n1)[C@](O)(CC)C1(CC2)CC1 (single isomer, unassigned) [Compound 69a] | 100 to 1000 | 1000 to 2000 | 100 to 1000
15 | C=CCn1c(=O)c2cnc(Nc3ccc(N4CC5CN(C)CC5C4)cc3)nc2n1-c1ccc2c(n1)C(O)C1(CC2)CC1 (single isomer, unassigned) [Compound 63a] | 100 to 1000 | 100 to 1000 | 100 to 1000
16 | C=CCn1c(=O)c2cnc(Nc3ccc(N4CC5CC(C4)N5C)cc3)nc2n1-c1ccc2c(n1)[C@](C)(O)C1(CC2)CC1 [Compound 7b] | 100 to 1000 | 100 to 1000 | 100 to 1000
17 | C=CCn1c(=O)c2cnc(Nc3ccc(N4C[C@@H](C)O[C@@H](C)C4)cc3)nc2n1-c1ccc2c(n1)[C@@](O)(CC)C1(CC1)C2 (single isomer, unassigned) [Compound 31b] | 2000 to 5000 | 2000 to 5000 | 1000 to 2000
18 | C=CCn1c(=O)c2cnc(Nc3ccc(N4CC5CC(C4)N5C)cc3)nc2n1-c1ccc2c(n1)C(O)C1(CC2)CC1 (single isomer, unassigned) [Compound 34a] | 100 to 1000 |  | 2000 to 5000
19 | C=CCn1c(=O)c2cnc(Nc3ccc(N4CCN(C)CC4)cc3)nc2n1-c1ccc2c(n1)N(CC)CC21CCC1 [Compound 16] | 100 to 1000 | 1000 to 2000 | 
20 | C=CCn1c(=O)c2cnc(Nc3ccc(N4CCN(C)CC4)cc3)nc2n1-c1ccc2c(c1)C(O)(CC)C1(CC1)C2 (racemic) [Compound 29] | 1000 to 2000 | 2000 to 5000 | 100 to 1000
21 | C=CCn1c(=O)c2cnc(Nc3ccc(N4C[C@H]5CN(C)C[C@H]5C4)cc3)nc2n1-c1ccc2c(n1)[C@@](C)(O)C1(CC2)CC1 (single isomer, unassigned) [Compound 43b] | 100 to 1000 | 100 to 1000 | 100 to 1000
22 | C=CCn1c(=O)c2cnc(Nc3ccc(N4CCC(N(C)C)[C@@H](F)C4)cc3)nc2n1-c1ccc2c(n1)[C@@](C)(O)C1(CC1)C2 (single isomer, unassigned) [Compound 20b] | 1000 to 2000 | 1000 to 2000 | 1000 to 2000
23 | C=CCn1c(=O)c2cnc(Nc3ccc(N4CCC(N(C)C)[C@H](F)C4)cc3)nc2n1-c1ccc2c(n1)C(C)(O)C1(CC2)CC1 (some centres unmarked) [Compound 60a] | 100 to 1000 | 100 to 1000 | 100 to 1000
24 | C=CCn1c(=O)c2cnc(Nc3ccc(N4C[C@@H](C)O[C@@H](C)C4)cc3)nc2n1-c1ccc2c(n1)[C@](O)(CC)C1(CC1)C2 (single isomer, unassigned) [Compound 31a] | 2000 to 5000 | 5000 to 10000 | 5000 to 10000
25 | C=CCn1c(=O)c2cnc(Nc3ccc(N4CC5CC(C4)N5C(C)=O)cc3)nc2n1-c1ccc2c(n1)[C@](C)(O)C1(CC2)CC1 (single isomer, unassigned) [Compound 50b] | 100 to 1000 | 100 to 1000 | 100 to 1000
26 | C=CCn1c(=O)c2cnc(Nc3ccc(N4CC5CC(C4)N5CC)cc3)nc2n1-c1ccc2c(n1)[C@](C)(O)C1(CC2)CC1 [Compound 51b] |  | 100 to 1000 | 

Other lines, results leading:

Row | IC50 [1] [nM] | IC50 [2] [nM] | IC50 [3] [nM] | SMILES
27 | 1000 to 2000 | 2000 to 5000 | 100 to 1000 | C=CCn1c(=O)c2cnc(Nc3ccc(N4CCN(C)CC4)c(C)c3)nc2n1-c1ccc2c(n1)C(C)(O)C1(CC1)C2 (racemic) [Compound 10]
28 | 100 to 1000 | 1000 to 2000 | 100 to 1000 | C=CCn1c(=O)c2cnc(Nc3ccc(N4CCN(C)[C@H](C)C4)cc3)nc2n1-c1ccc2c(n1)C(O)(CC)C1(CC1)C2 (some centres unmarked) [Compound 40]
29 | 100 to 1000 | 1000 to 2000 | 1000 to 2000 | C=CCn1c(=O)c2cnc(Nc3ccc(N4CCN(C)CC4)c(C)c3)nc2n1-c1ccc2c(n1)C(C)(O)C1(CC2)CC1 (racemic) [Compound 8]
30 | 2000 to 5000 | 2000 to 5000 | 2000 to 5000 | C=CCn1c(=O)c2cnc(Nc3ccc(N4CCN(C)CC4)c(CO)c3)nc2n1-c1ccc2c(n1)C(C)(O)C1(CC1)C2 (racemic) [Compound 19]
31 | 100 to 1000 | 2000 to 5000 | 100 to 1000 | C=CCn1c(=O)c2cnc(Nc3ccc(N4CCC(N(C)C)CC4)cc3)nc2n1-c1ccc2c(n1)C(C)(O)C1(CC1)C2 (racemic) [Compound 12]
32 | 100 to 1000 | 100 to 1000 | 1000 to 2000 | C=CCn1c(=O)c2cnc(Nc3ccc(N4CCN(C)CC4)cc3)nc2n1-c1ccc2c(n1)C(O)(C(F)(F)F)C1(CC2)CC1 (centres unmarked) [Compound 53b]
33 | > 10000 | > 10000 | > 10000 | C=CCn1c(=O)c2cnc(Nc3ccc(N4CCC5(CC4)CN(C)C5)cc3)nc2n1-c1ccc2c(n1)C(C)(O)C1(CC2)CC1 (racemic) [Compound 47]
34 |  | 100 to 1000 |  | C=CCn1c(=O)c2cnc(Nc3ccc(N4CCC5(CCN(C)CC5)CC4)cc3)nc2n1-c1ccc2c(n1)[C@](C)(O)C1(CC2)CC1 [Compound 44b]
35 | 100 to 1000 | 100 to 1000 | 100 to 1000 | C=CCn1c(=O)c2cnc(Nc3ccc(N4CCC(N(C)C)CC4)c(C)c3)nc2n1-c1ccc2c(n1)C(C)(O)C1(CC2)CC1 (centres unmarked) [Compound 52b]
36 | 100 to 1000 | 100 to 1000 | 100 to 1000 | C=CCn1c(=O)c2cnc(Nc3ccc(N4CCC(N(C)C)CC4)c(C)c3)nc2n1-c1ccc2c(n1)[C@@](C)(O)C1(CC1)C2 (single isomer, unassigned) [Compound 42b]
37 | 100 to 1000 | 100 to 1000 | 100 to 1000 | C=CCn1c(=O)c2cnc(Nc3ccc(N4CC5CC(C4)N5C)cc3)nc2n1-c1ccc2c(n1)C(C)(O)C1(CC1)C2 (centres unmarked) [Compound 13]
38 | 100 to 1000 | 1000 to 2000 |  | C=CCn1c(=O)c2cnc(Nc3ccc(N4CCN(C)CC4)cc3)nc2n1-c1ccc2c(n1)C(C)(O)C1(CC2)CC1 (single isomer, unassigned) [Compound 6b]
